{"source": "patent US6989396B2", "about": "“Tropane alkaloid multidrug resistance inhibitors from Erythroxylum pervillei and use of the same” (The Board of Trustees of the University of Illinois, priority 2001, dated 2006)", "key": {"[1]": {"test_system": "SW626, human ovarian adenocarcinoma", "test": "In vitro cytotoxicity, human tumor panel: SW626", "assay_type": "cell-based", "details": "SW626, read-out: ED50 SW626", "procedure": "(§1) Cytotoxicity assay. Compounds 1–9 were evaluated for cytotoxic activity against a panel of human cancer cell lines, including KB-V1 in the presence and absence of VLB, according to an established protocol (68)."}, "BC1, breast cancer": {"test_system": "BC1, breast cancer", "test": "In vitro cytotoxicity, human tumor panel: BC1", "assay_type": "cell-based", "details": "Homo sapiens, read-out: ED50 BCI", "procedure": "as §1"}, "MDR1 (Pgp) expression": {"test_system": "MDR1 (Pgp) expression", "test": "Western blot analysis of MDR1 expression", "assay_type": "cell-based, human", "details": "KB-V1 and CEM/VLB100 cells, 72 hours; pervilleine A up to 45 μM, verapamil up to 44 μM", "procedure": "Western blot analysis of MDR1 expression. […] Cells (7.5×10^5 cells as starting cell amount) were harvested using SDS lysis buffer [20 mM Tris-HCl (pH 6.8) containing 0.4% SDS (w/v), 5% glycerol (v/v), 0.006% bromophenol blue, 2% β-mer-captoethanol], and lysates were boiled for 10 minutes and stored at −20° C. Aliquots of lysates were used for protein determinations (bicinchoninic acid protein assay kit with BSA as standard), and equivalent amounts of protein were electrophoresed by SDS-PAGE with precast 7.5% Tris-glycine acrylamide gels (Novex, San Diego, Calif.). Following transfer to polyvinylidene difluoride membranes, nonspecific binding sites were blocked with 5% nonfat dry milk. Blotting was performed with rabbit polyclonal antibody mdr (Ab-1) (Oncogene Research Products, Inc.) and analyzed by streptavidin horseradish peroxidase-conjugated secondary antibody (Amersham Life Science) and visualized using a ECL western blotting detection system (Amersham Life Science)."}, "[2]": {"test_system": "LNCaP, hormone-dependent prostate cancer", "test": "In vitro cytotoxicity, human tumor panel: LNCaP", "assay_type": "cell-based", "details": "Homo sapiens, LNCaP, read-out: ED50 LNCaP", "procedure": "as §1"}, "KB-V1, drug resistant KB": {"test_system": "KB-V1, drug resistant KB", "test": "In vitro cytotoxicity, human tumor panel: KB-V1 with or without vinblastine", "assay_type": "cell-based", "procedure": "as §1"}, "KB-8-5 cells": {"test_system": "KB-8-5 cells", "test": "Reversal of MDR, cell survival assay: KB-8-5 with or without colchicine", "assay_type": "cell-based, human", "details": "for Ratio of IC50 values KB-3/[KB-8-5 (+)] / Ratio of IC50 values [KB-8-5 (−)]/[KB-8-5 (+)]: colchicine 10 ng/ml", "procedure": "Cytotoxic potential. The cytotoxic potential of test substances with KB-3, KB-V1 and KB-8-5 cells was determined as described previously (24). Briefly, various concentrations of test compounds (dissolved in 10 μl of 10% DMSO) were transferred to 96-well plates, and 190 μl aliquots of cell suspensions (5×10^4 cells/ml) were added to each well. The plates then were incubated for 72 hours at 37° C. (100% humidity with a 5% CO2 atmosphere in air), and 100 μl of cold 20% aqueous trichloroacetic acid were added to the growth medium in each well to fix the cells. The cultures were incubated at 4° C. for 30 minutes, washed, air-dried, stained with sulforhodamine B solution, and washed with 1% acetic acid. […] In each case, a zero-day control was performed by adding an equivalent number of cells to several wells and incubating at 37° C. for 30 minutes, and processing as described above. Optical density values obtained with the zero-day control were subtracted, and cell survival, relative to control (solvent-treated) cultures, was calculated. The cytotoxic potential of the compounds with CEM and CEM/VLB100 cells was determined as described by Beck et al. (30). Cells were grown in 24-well plates at a density of 5–6×10^5 cells/ml. At 48 hours, the cell number was determined using a Coulter Counter, with a channelizer to distinguish cells from debris."}, "KB-V1 cells": {"test_system": "KB-V1 cells", "test": "[3H]Vinblastine accumulation with intact cells", "assay_type": "cell-based, human", "details": "modulator 0–40 μM", "procedure": "[^3H]Vinblastine accumulation with intact cells. Measurement of the accumulation of [^3H]vinblastine in cell monolayers was performed by the method of Fojo et al. (34) with some modifications. Studies were performed with 24-well plates. In preparing the cell monolayers, 2 ml of a cell suspension containing 2.5×10^5 cells per ml of incubation medium (DMEM with 10% calf serum) were added to each well. Control wells contained 2 ml of assay medium. […] Monolayers were washed three times with cold PBS, dried by inversion, and the cells were treated with trypsin. Cell suspensions were then transferred to vials containing 3 ml of scintillation solution (CytoScint™, ICN), mixed vigorously, and counted. The quantity of [^3H]vinblastine associated with incubations containing cells was corrected by subtracting the counts associated with incubations not containing cells."}, "KB-3 cells": {"test_system": "KB-3 cells", "test": "Growth inhibitory potential (sulforhodamine B cell survival assay): KB-3", "assay_type": "cell-based", "details": "Homo sapiens, KB3, 72 h, read-out: IC50 KB-3", "procedure": "One part of a natural product drug discovery program involves monitoring the potential of plant extracts to reverse multiple drug resistance. […] To investigate the potential of plant extracts or compounds to reverse multidrug-resistance, KB-V1 cells are treated with different concentrations of plant extracts or compounds in the presence (1 μg/ml) or absence of vinblastine.\nCytotoxic potential. The cytotoxic potential of test substances with KB-3, KB-V1 and KB-8-5 cells was determined as described previously (24). Briefly, various concentrations of test compounds (dissolved in 10 μl of 10% DMSO) were transferred to 96-well plates, and 190 μl aliquots of cell suspensions (5×10^4 cells/ml) were added to each well. The plates then were incubated for 72 hours at 37° C. (100% humidity with a 5% CO2 atmosphere in air), and 100 μl of cold 20% aqueous trichloroacetic acid were added to the growth medium in each well to fix the cells. The cultures were incubated at 4° C. for 30 minutes, washed, air-dried, stained with sulforhodamine B solution, and washed with 1% acetic acid. Finally, 200 μl of 10 mM Tris base were added to each well and the optical densities were determined at 515 nm utilizing an ELISA plate reader. In each case, a zero-day control was performed by adding an equivalent number of cells to several wells and incubating at 37° C. for 30 minutes, and processing as described above. Optical density values obtained with the zero-day control were subtracted, and cell survival, relative to control (solvent-treated) cultures, was calculated. The cytotoxic potential of the compounds with CEM and CEM/VLB100 cells was determined as described by Beck et al. (30). Cells were grown in 24-well plates at a density of 5–6×10^5 cells/ml. At 48 hours, the cell number was determined using a Coulter Counter, with a channelizer to distinguish cells from debris."}}, "note": "Entries after “also recorded” stand apart in the source; their conditions may differ. Marks after values point to notes of the source that are not given here."}
{"smiles": "COc1cc(C=CC(=O)O[C@H]2[C@@H](O)[C@@H]3C[C@H](OC(=O)c4cc(OC)c(OC)c(OC)c4)C[C@H]2N3C)cc(OC)c1OC", "note": "[Compound 3, 3α-(3,4,5-trimethoxybenzoyloxy)-6β-(3,4,5-trimethoxycinnamoyloxy)-7β-hydroxytropane]", "values": [{"measurement": "IC50", "setting": "[1]", "result": "> 20", "unit": "µg/mL"}, {"measurement": "IC50", "setting": "BC1, breast cancer", "result": "> 20", "unit": "µg/mL"}, {"measurement": "effect on levels of Pgp (MDR1 protein expression)", "setting": "MDR1 (Pgp) expression", "result": "did not alter expression levels; also recorded: did not significantly alter; also recorded: did not significantly affect"}, {"measurement": "IC50", "setting": "[2]", "result": "> 20", "unit": "µg/mL"}, {"measurement": "IC50", "setting": "KB-V1, drug resistant KB; Homo sapiens, KB-V1, drug-resistant KB assessed in the absence of vinblastine, read-out: ED50 KB-V1−", "result": "> 20", "unit": "µg/mL"}, {"measurement": "ED50 KB-V1+", "setting": "KB-V1, drug resistant KB; drug resistant KB assessed in presence of vinblastine (1 μg/mL)", "result": 0.3, "unit": "µg/mL"}, {"measurement": "IC50", "setting": "KB-8-5 cells; Homo sapiens", "result": 14, "unit": "µM"}, {"measurement": "Ratio of IC50 values KB-3/[KB-8-5 (+)]", "setting": "KB-8-5 cells; listed as Pervilleine A", "result": "40.3^d"}, {"measurement": "Ratio of IC50 values [KB-8-5 (−)]/[KB-8-5 (+)]", "setting": "KB-8-5 cells; listed as Pervilleine A", "result": "23.3^d"}, {"measurement": "Ratio of IC50 values KB-3/[KB-8-5 (+)]", "setting": "KB-8-5 cells; listed as pervilleine A", "result": 40.3}, {"measurement": "Ratio of IC50 values [KB-8-5 (−)]/[KB-8-5 (+)]", "setting": "KB-8-5 cells; listed as pervilleine A", "result": 23.3}, {"measurement": "fold increase of [3H]vinblastine accumulation", "setting": "KB-V1 cells", "result": "about 27 fold"}, {"measurement": "IC50", "setting": "KB-3 cells", "result": 24, "unit": "µM"}]}
